Patent US9586914B2, “Modulators of C3a receptors” (THE UNIVERSITY OF QUEENSLAND, priority 2011, dated 2017)
“Also recorded” adds a separate entry of the source. Like-named read-outs stand apart in the source and are kept apart here.

Tests used:
[1] = system: IL1B, IL8, CCL3, EGR1, FOSB and TNF gene expression in HMDMs; experiment: Regulation of inflammatory genes in HMDM (qRT-PCR); format: cell-based, human; details: for Induction of gene expression of IL1B, IL8, CCL3, EGR1, FOSB and TNF: HMDMs, 300 nM, 30 minutes, qRT-PCR, fold change from control
Source text: Human monocyte-derived macrophages (HMDMS) were isolated from buffy coat of anonymous donors provided by the Australian Red Cross Blood Service at Kelvin Grove, Queensland, Australia. White blood cells were separated from other blood components into different layers using Ficoll-Paque Plus Density Centrifugation (GE Healthcare Bio-Science, Uppsala, Sweden) according to manufacturer's instruction. The isolated white blood cells were repeatedly washed with ice-cold water to remove contaminating erythrocytes. CD14^+ monocytes were positively selected from white blood cells using CD14^+ Macs Magnetic Beads (Miltenyi biotech, Auburn, Calif., USA) after successive magnetic sorting and washings. CD14^+ monocytes (1.5×10^6 cells/mL) were seeded in 10 mL of IMDM supplemented with 10% fetal calf serum (FBS), 10 U/mL streptomycin, 10 U/mL penicillin and 2 mmol L-glutamine (Invitrogen). To generate HMDMS, […] of recombinant human macrophage colony stimulating factor (M-CSF) (Peprotech Inc., rocky Hill, N.J., USA) was added for differentiation. HMDMS were maintained at 37° C. in a humidified incubator with 5% CO2 for a week to fully differentiate. At day 7, the adhered HMDMS were harvested by gentle scraping in saline solution.
HMDMs (2×10^6) in 2 mL of IMDM medium were transferred into each well on a 6-well plate. The cells were left to incubate for 6 h to allow adhesion before being serum starved in serum free IMDM to reduce background noise of the C3a treatment. In the time response experiment, cells were treated with 10 nM of C3a or agonist (compound 8 or 64) for 0.5, 1, 2 or 6 h. In concentration response experiments, cells were treated with 1, 10, 100 or 300 nM for 1 h. To prepare the samples for the microarray experiments, cells were treated with agonist at 100-300 nM for 30 min or 1 h in the absence or presence of the antagonist (e.g. SB-290157 or antagonists). […] Cells were washed with saline solution at the end of each treatment before the RNA extraction step.
Total RNA was extracted from cells using RNeasy Mini Plus kit (Qiagen, USA) according to the manufacturer's instructions. The concentration of the RNA was determined by measuring absorbance at λ=260/280 […] on a nanodrop spectrophotometer (Thermo Scientific), according to the manufacturer's instructions.
Total RNA (2-5 μg) was reverse transcribed with Superscript III (Invitrogen, USA) using random oligo dT primer. Reagents were incubated (50 min, 50° C.; then 10 min, 70° C.) in thermal cyclers (Bio-Rad) to complete the reaction, cDNA samples were stored at −20° C. until further use. All RNA work was performed on ice (4° C.) to prevent degradation of the RNA samples.
cDNA (0.5 μg) samples were prepared with 5 μL SYBR® Green PCR master mix (Applied Biosystems™, CA, USA), 2 μL relevant primers (2 μM) and 1 μL dH2O before being analysed using an ABI 7900HT Fast Real-Time PCR System (Applied Biosystems™, CA, USA) according to the manufacturer's specifications. Fluorescence data was collected during the extension phase (60° C.). The concentration response data for each sample was then normalised against the same data for control housekeeping gene, (18S) to quantify and generate gene expression data. All samples were done in at least duplicate. Primers were designed using the Primer-BLAST software (National Center for Biotechnology Information, USA). Primers contained, amplicons that cross exon-exon boundaries to prevent amplification of genomic DNA. […]

C3aR = biological target: T1, C3aR (Homo sapiens, UniProt Q16581); experiment: Calcium mobilization assay in HMDM (agonist/antagonist activity); format: cell-based
T1 construct: peripheral blood mononuclear cells were isolated from buffy coat (obtained from Australian Red Cross Blood Service, Kelvin Grove); endogenous in cells; host or cells: primary human monocyte-derived macrophages (HMDM) differentiated from CD14+ monocytes of donor buffy coat
T1 sequence (Q16581 1-482): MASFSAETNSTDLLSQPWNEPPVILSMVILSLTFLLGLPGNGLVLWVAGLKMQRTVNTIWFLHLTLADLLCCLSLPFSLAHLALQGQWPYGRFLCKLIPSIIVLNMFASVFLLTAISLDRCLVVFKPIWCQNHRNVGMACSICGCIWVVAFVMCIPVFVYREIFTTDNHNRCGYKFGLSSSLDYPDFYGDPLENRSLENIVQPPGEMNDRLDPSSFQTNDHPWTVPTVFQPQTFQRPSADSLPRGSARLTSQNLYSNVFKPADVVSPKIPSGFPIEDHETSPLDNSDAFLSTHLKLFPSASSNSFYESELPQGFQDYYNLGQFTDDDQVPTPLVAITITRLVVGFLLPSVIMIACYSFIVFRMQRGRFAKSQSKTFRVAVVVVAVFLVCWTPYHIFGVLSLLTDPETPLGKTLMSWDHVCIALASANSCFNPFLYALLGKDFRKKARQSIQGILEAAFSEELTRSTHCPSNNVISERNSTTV
How it was run: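 Human monocyte-derived macrophages, 5×10^4 cells/well, loaded 1 h at 37 °C with 4 μM Fluo-3 in HBSS/HEPES/probenecid buffer, pH 7.4. Agonist mode: calcium release read 300 s; antagonist mode: 900 s compound preincubation then agonist, read 300 s (ex 485/em 520 nm); compared with hC3a.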

C3a receptor (C3aR) = biological target: T2, C3a receptor (C3aR) (Homo sapiens, UniProt Q16581); experiment: Competitive binding with [^125I]-C3a in HMDM; details: for pIC50 ± SEM / IC50 / Receptor Binding Affinity pIC50 ± SE: HMDM
T2 construct: peripheral blood mononuclear cells were isolated from buffy coat (obtained from Australian Red Cross Blood Service, Kelvin Grove); endogenous in cells; host or cells: primary human monocyte-derived macrophages (HMDM) differentiated from CD14+ monocytes of donor buffy coat
T2 sequence (Q16581 1-482): T1 sequence (Q16581 1-482)
How it was run: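 IC50 values are geometric means, with −log IC50 computed per experiment and given as arithmetic mean ± SE. Cells were CD14+ monocytes from buffy-coat PBMC, differentiated to macrophages and used on day 7. Unbound label was removed by GF/B filtration with 3 cold washes in 50 mM Tris-HCl pH 7.4.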

[2] = Table 9, Ca^2+ mobilization, HMDM
[3] = Table 10, HMDM, read-out: Agonist Activity EC50
[4] = Table 11, Ca^2+ mobilisation, HMDM
[5] = Table 6, competitive binding with [^125I]-C3a
[6] = Table 6, competitive binding with [^125I]-C3a, read-out: IC50 (converted)
[7] = Table 8, read-out: Receptor Binding Affinity ^125I IC50
[8] = Table 11, [^125I]-C3a, read-out: Receptor Binding Affinity IC50

Compound | Induction of gene expression of IL1B, IL8, CCL3, EGR1, FOSB and TNF [1] | pEC50 ± SEM (C3aR; [2]) | EC50 (C3aR; Table 9, Ca^2+ mobilization, HMDM, read-out: EC50) | EC50 (C3aR; [3]) | Apparent Antagonist Activity pEC50 ± SE (C3aR; [4]) | EC50 (C3aR; Table 11, Ca^2+ mobilisation, HMDM, read-out: Apparent Antagonist Activity EC50) | pIC50 ± SEM (C3a receptor (C3aR); [5]) | IC50 (C3a receptor (C3aR); [6]) | IC50 (C3a receptor (C3aR); [7]) | Receptor Binding Affinity pIC50 ± SE (C3a receptor (C3aR); Table 11, [^125I]-C3a) | IC50 (C3a receptor (C3aR); [8]) | Function at C3aR (agonist / antagonist) (C3aR; text of Example 100) | -Log IC50 (C3a receptor (C3aR); Table 14, binding affinity for C3aR on HMDM) | Effect of pertussis toxin pre-treatment on gene induction by C3a or compounds 8 or 64 ([1]; 200 ng/mL pertussis toxin overnight, then 300 nM agonist for 30 minutes (not shown)) | Effect of antagonist on gene induction by C3a or compounds 8 or 64 ([1]; SB290157 5 μM, 30 mins preincubation) | IC50 (C3aR; Table 9, antagonist SB290157, Ca^2+ mobilization, HMDM, read-out: IC50 (printed in the EC50 (nM) column)) | IC50 (C3aR; Table 10, HMDM, read-out: Antagonist Activity Ca^2+ IC50) | Apparent Antagonist Activity pEC50 ± SE (symbol) (C3aR; Table 11) | Apparent Antagonist Activity pIC50 ± SE (C3aR; [4]) | IC50 (C3aR; Table 11, Ca^2+ mobilisation, HMDM, read-out: Apparent Antagonist Activity IC50)
hC3a: human complement protein C3a, natural ligand of the C3a receptor; unlabelled competitor and reference agonist | significantly induce gene expression | 7.19 ± 0.06 | 65 nM | 45000 nM | 7.2 ± 0.06 | 65 nM | 9.64 ± 0.04 | 0.23 nM | 0.07 nM | 9.64 ± 0.04 | 0.23 nM | – | – | – | – | – | – | – | – | –
Cc1nc(C(c2ccccc2)c2ccccc2)[nH]c1C(=O)N[C@@H](CCCNC(=N)N)C(=O)O [Compound 64, 2-Diphenylmethyl-4-methyl imidazole-5-carboxyl-Arg-OH] | significantly induce gene expression; also recorded: induced expression of inflammatory genes | – | – | 24 nM | – | – | – | – | 7.6 nM | – | – | potent full agonist | 8.0 | – | – | – | – | – | – | –
pertussis toxin [reference compound] | – | – | – | – | – | – | – | – | – | – | – | – | – | ablated | – | – | – | – | – | –
NC(N)=NCCC[C@H](NC(=O)COCC(c1ccccc1)c1ccccc1)C(=O)O [SB290157, reference compound] | – | 5.52 ± 0.08 | – | – | – | – | 7.42 ± 0.06 | 38 nM | 11 nM | 7.42 ± 0.06 | 38 nM | – | – | – | prevented | 3050 nM | 1300 nM | * (The compounds show no agonist activity in calcium mobilisation assays up to 100 μM.) | 5.6 ± 0.09 | 2700 nM
